Values quoted from earlier work in patent US9518046B2 (Calitor Sciences, LLC, priority 2015, dated 2016).

Columns and labels:
PI3Kδ = settings: literature; cited from earlier work
protein kinases = settings: literature; cited from earlier work
[1] = murine model of asthma, ovalbumin-induced airway inflammation; literature; cited from earlier work
[2] = literature; cited from earlier work
[3] = literature; cited from earlier work; remark: listed apart in the source

SMILES	inhibits PI3Kδ (PI3Kδ)	activity against any protein kinases tested (protein kinases)	effect on inflammation and disease [1]	efficacy in mouse model of rheumatoid arthritis [2]	effect on onset of disease in model of systemic lupus erythematosis [3]
Cc1ccccc1-n1c(Cn2cnc3c(N)ncnc32)nc2cccc(C)c2c1=O [IC87114]	high nanomolar range (triple digit)	no activity	significantly ameliorate inflammation and disease		
O=C1NC(=O)/C(=C\c2ccc3nccnc3c2)S1 [AS 605240]				efficacious	delay onset of disease
